IC50 data for 36 molecules are collected here from patent US9862730B2, “Imidazothiadiazole derivatives as protease activated receptor 4 (PAR4) inhibitors for treating platelet aggregation” (BRISTOL-MYERS SQUIBB COMPANY, priority 2012, dated 2018).

The structures appear in SMILES notation. pIC50: −log10 of the molar value.

Chain of PAR4 (Q96RI0 18-385): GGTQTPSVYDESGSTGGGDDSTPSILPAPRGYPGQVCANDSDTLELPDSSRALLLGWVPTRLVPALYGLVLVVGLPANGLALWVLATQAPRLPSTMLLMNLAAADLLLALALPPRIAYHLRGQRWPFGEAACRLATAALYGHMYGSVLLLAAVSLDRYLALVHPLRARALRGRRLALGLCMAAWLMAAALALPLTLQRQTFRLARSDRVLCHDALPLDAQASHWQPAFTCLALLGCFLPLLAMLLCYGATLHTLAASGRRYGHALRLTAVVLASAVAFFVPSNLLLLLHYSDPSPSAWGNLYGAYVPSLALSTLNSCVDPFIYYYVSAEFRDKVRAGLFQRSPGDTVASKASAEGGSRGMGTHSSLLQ

For the assay, the target named is PAR4 (Homo sapiens (Human), UniProt Q96RI0). Put plainly: FLIPR assay in PAR4-expressing HEK293 cells (PAR4 antagonist activity, calcium mobilization). It counts as cell-based. The following applies: FLIPR assay as described in Example A. Summed up:
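HEK293 cells stably expressing human PAR4 (also endogenous PAR1) in HBSS/10 mM HEPES, 0.67% DMSO final. Compound added and read for agonist activity, then 30 min room temperature before PAR4 agonist peptide; intracellular calcium mobilization monitored by FDSS/FLIPR.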
Turning to `Cc1cc(C(F)(F)F)c2cc(-c3cn4nc(Br)sc4n3)oc2n1` [Example 306], the pIC50 was 5.96.

With `COc1cc(OCc2cccc(OCc3cccc(NC(=O)c4ccccc4)c3)c2)c2cc(-c3cn4nc(OC)sc4n3)oc2c1` [Example 397], the pIC50 is 8.64.

In the case of `Cc1ccc2oc(-c3cn4nc(C)sc4n3)nc2c1` [Example 112, 5-Methyl-2-(2-methylimidazo[2,1-b][1,3,4]thiadiazol-6-yl)benzo[d]oxazole], the pIC50 is 6.42.

On to `COc1nn2cc(-c3cc4ccc(C)cc4o3)nc2s1` [Example 90], for which the pIC50 was 8.33.

Turning to `COc1nn2cc(-c3cc4c(OCc5cccc(OCc6ccccc6)c5)cc(F)cc4o3)nc2s1` [Example 427], the pIC50 was 8.72.

As for `CCOc1cccc2cc(-c3cn4nc(CC)sc4n3)oc12` [Example 13, 6-(7-Ethoxybenzofuran-2-yl)-2-ethylimidazo[2,1-b][1,3,4]thiadiazole], the pIC50 was 6.83.

In the case of `COc1cc(OCc2cccc(OCc3cc(C(F)(F)F)ccc3F)c2)c2cc(-c3cn4nc(OC)sc4n3)oc2c1` [Example 321], the pIC50 is 8.17.

Consider `CSc1nn2cc(-c3nc4cc(OC(F)(F)F)ccc4o3)nc2s1` [Example 139], for which the pIC50 was 7.09.

Turning to `COc1cc(OC[C@H]2CCCN2C(=O)OC(C)(C)C)c2cc(-c3cn4nc(OC)sc4n3)oc2c1` [Example 340], the pIC50 was 8.66.

On to `COc1cc(OCc2cccc(OCc3ccccc3C(F)(F)F)c2)c2cc(-c3cn4nc(OC)sc4n3)oc2c1` [Example 326], for which the pIC50 is 8.47.

For `CSc1nn2cc(-c3nc4c(OC[C@@H]5CCCN5C(=O)[C@H](NC(=O)OC(C)(C)C)c5ccccc5)cccc4o3)nc2s1` [Example 334, tert-Butyl ((R)-2-((S)-2-(((2-(2-(methylthio)imidazo[2,1-b][1,3,4]thiadiazol-6-yl)benzo[d]oxazol-4-yl)oxy)methyl)pyrrolidin-1-yl)-2-oxo-1-phenylethyl)carbamate], the pIC50 was 5.63.

As to `CCCCOc1ccc2nc(-c3cn4nc(CC)sc4n3)oc2c1` [Example 79], the pIC50 is 6.10.

For the molecule `COc1cc2oc(-c3cn4nc(SC)sc4n3)cc2cc1Cl` [Example 202, 6-(5-Chloro-6-methoxybenzofuran-2-yl)-2-(methylthio)imidazo[2,1-b][1,3,4]thiadiazole], the pIC50 is 8.50.

In the case of `CSc1nn2cc(-c3cc4c(Cl)nccc4o3)nc2s1` [Example 221, 4-Chloro-2-(2-(methylthio)imidazo[2,1-b][1,3,4]thiadiazol-6-yl)furo[3,2-c]pyridine], the pIC50 is 7.90.

With `CCc1nn2cc(-c3nc4ccc(OCc5ccccc5Cl)cc4o3)nc2s1` [Example 81], the pIC50 was 6.30.

Regarding `COc1cc(OCc2cccc(OCc3ccccc3-c3ccccc3)c2)c2cc(-c3cn4nc(OC)sc4n3)oc2c1` [Example 317], the pIC50 was 8.08.

On to `CSc1nn2cc(-c3nc4c(N)cccc4o3)nc2s1` [Example 120, 2-(2-(Methylthio)imidazo[2,1-b][1,3,4]thiadiazol-6-yl)benzo[d]oxazol-4-amine], for which the pIC50 was 7.31.

Turning to `CSc1nn2cc(-c3nc4c(OC[C@@H]5CCCN5C(=O)OC(C)(C)C)cccc4o3)nc2s1` [Example 332, (S)-tert-Butyl 2-(((2-(2-(methylthio)imidazo[2,1-b][1,3,4]thiadiazol-6-yl)benzo[d]oxazol-4-yl)oxy)methyl)pyrrolidine-1-carboxylate], the pIC50 is 6.60.

For `CCc1nn2cc(-c3nc4ccc(OC5CCCCC5)cc4o3)nc2s1` [Example 80], the pIC50 is 6.16.

In the case of `COc1nn2cc(-c3cc4c(OCc5cccc(OCc6ccccc6)c5)cccc4o3)nc2s1` [Example 413, 6-(4-((3-(Benzyloxy)benzyl)oxy)benzofuran-2-yl)-2-methoxyimidazo[2,1-b][1,3,4]thiadiazole], the pIC50 is 8.74.

As to `COc1cc2oc(-c3cn4nc(SC)sc4n3)cc2cc1Br` [Example 261], the negative logarithm of the IC50 (pIC50) was 8.34.

Consider `COc1ccc(Br)c2cc(-c3cn4nc(Br)sc4n3)oc12` [Example 285], for which the pIC50 was 6.50.

On to `CSc1nn2cc(-c3nc4c(OCc5cc(F)cc(F)c5)cccc4o3)nc2s1` [Example 171], for which the pIC50 is 7.32.

On to `CSc1nn2cc(-c3cc4c(OCC#N)cccc4o3)nc2s1` [Example 248], for which the pIC50 was 6.84.

With `CCc1nn2cc(-c3nc4ccc(OCc5ccc(OC)cc5)cc4o3)nc2s1` [Example 84], the pIC50 is 6.99.

`Fc1ccc2cc(-c3cn4nc(C(F)(F)Cl)sc4n3)oc2c1` [Example 243]: the negative logarithm of the IC50 (pIC50) was 6.44.

Consider `COc1nn2cc(-c3nc4ccc(C)cc4s3)nc2s1` [Example 197], for which the pIC50 is 5.98.

For `COc1nn2cc(-c3cc4c(F)cccc4o3)nc2s1` [Example 279], the negative-log IC50 (pIC50) is 8.46.

With `COc1cc(OCc2cccc(OCc3c(Cl)cccc3Cl)c2)c2cc(-c3cn4nc(OC)sc4n3)oc2c1` [Example 368], the pIC50 was 8.33.

For the molecule `CSc1nn2cc(-c3cc4c(OCc5cccc(OCc6ccccc6)c5)cc(OC=O)cc4o3)nc2s1` [Example 425], the pIC50 was 7.91.

For the molecule `COc1nn2cc(-c3nc4c(Cl)cccc4s3)nc2s1` [Example 196], the negative logarithm of the IC50 (pIC50) is 6.10.

Regarding `COc1cc2oc(-c3cn4nc(Br)sc4n3)cc2cc1Br` [Example 275], the pIC50 is 7.64.

Take `CCc1nn2cc(-c3nc4cc(C)c(C)cc4o3)nc2s1` [Example 46]: the pIC50 is 6.25.

Take `C[C@@H](F)c1nn2cc(-c3cc4c(Cl)cc(Cl)cc4o3)nc2s1` [Example 213A, (R)-6-(4,6-Dichlorobenzofuran-2-yl)-2-(1-fluoroethyl)imidazo[2,1-b][1,3,4]thiadiazole]: the pIC50 is 6.48.

On to `COc1cc(OCc2cccc(OCc3cccnc3C)c2)c2cc(-c3cn4nc(OC)sc4n3)oc2c1` [Example 308], for which the negative-log IC50 (pIC50) is 6.73.

Consider `CC(F)(F)c1nn2cc(-c3cc4cccc(OC(F)(F)F)c4o3)nc2s1` [Example 240], for which the pIC50 is 6.17.
